Laboratory results published in PubChem BioAssay AID1417 (Emory University Molecular Libraries Screening Center, 2008).

target: Induced myeloid leukemia cell differentiation protein Mcl-1 (Homo sapiens) (UniProt Q07820); experiment: Mcl-1/Noxa binding inhibitor potency, dose response, biochemical, TR-FRET (AID 1417); conditions: Mcl-1/Noxa peptide interaction, cell-free TR-FRET (terbium/rhodamine), 2 h; measured here: absolute IC50
Sequence (Q07820 whole entry, looked up): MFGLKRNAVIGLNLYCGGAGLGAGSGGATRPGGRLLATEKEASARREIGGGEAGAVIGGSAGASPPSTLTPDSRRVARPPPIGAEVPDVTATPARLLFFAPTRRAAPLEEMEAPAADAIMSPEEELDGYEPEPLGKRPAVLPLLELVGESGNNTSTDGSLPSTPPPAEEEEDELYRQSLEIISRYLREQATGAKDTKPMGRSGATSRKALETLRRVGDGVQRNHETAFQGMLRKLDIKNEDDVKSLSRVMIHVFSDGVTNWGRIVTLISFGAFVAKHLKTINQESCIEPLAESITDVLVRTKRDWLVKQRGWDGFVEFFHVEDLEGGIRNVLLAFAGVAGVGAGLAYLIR

Structure (SMILES) | IC50 [µM]
CC1CC1C(=O)OCC(=O)Nc1ccc2[nH]c(=O)[nH]c2c1 (stereo unspecified) | 4.38
NC(=S)n1[nH]c(-c2ccc([N+](=O)[O-])cc2)c(N=Nc2cccc([N+](=O)[O-])c2)c1=O | 1.65
N=c1oc2cc(O)ccc2cc1C(=O)Nc1nc2ccccc2s1 | 2.93
CN(C)c1ccc(NC(=O)Cn2ncn3c(cc4ccccc43)c2=O)cc1 | 3.42
COc1cnn(-c2ccc(Br)cc2)c(=O)c1SCc1ccccc1 | > 54
CC(=O)Nc1ccc(C2=NNC(=Nc3ccc(S(=O)(=O)N4CCOCC4)cc3)SC2)cc1 | < 0.4
CCOc1cc(/C=C2\C(=O)N(c3nc(-c4ccc(Br)cc4)cs3)N=C2c2ccccc2)ccc1O | 1.65
O=C(O)c1ccc(NS(=O)(=O)c2ccc3c(c2)C2C=CCC2C(c2ccccc2F)N3)cc1 (stereo unspecified) | 1.27
Nc1ccc2c(c1Cl)C(=O)c1ccc(N)c(Cl)c1C2=O | < 0.4
COCCN=c1scc(-c2cccs2)n1/N=C/c1ccc(O)c(O)c1O | 4.33
COc1ccc(N/C=C2\C(=O)CCc3c2oc2cc(Cl)c(O)c(Cl)c32)cc1 | 5.07
CC(=O)c1ccc(NC(=O)CSc2ccsc2[N+](=O)[O-])cc1 | > 54
O=C1c2cccc3cc([N+](=O)[O-])cc(c23)C(=O)N1/N=C/c1ccc(O)cc1O | 1.52
Cn1c(N)c(C(=O)COC(=O)c2cc(-c3ccco3)nc3ccccc23)c(=O)n(C)c1=O | 3.41
COc1ccc(N2CCC(CNC(=O)Nc3ccc(OC)cc3OC)C2)cc1 (stereo unspecified) | 1.24
CC(=O)Nc1sc(N/N=C/c2ccc(O)cc2)nc1-c1ccc(C)cc1 | 3.72
CC(C)CC1NC(=O)N(CC(=O)c2ccc3c(c2)OCCO3)C1=O (stereo unspecified) | > 54
O=C(COC(=O)c1cc(-c2ccco2)nc2ccccc12)NCc1ccc2c(c1)OCO2 | 29.4
O=C(/C=C/c1ccc(O)c(O)c1)O[C@H](Cc1ccc(O)c(O)c1)C(=O)O | < 0.4
CC1CCN(c2ccc(NC(=O)Cc3ccccc3)cc2)CC1 | > 54
COc1ccc(/C=C2\C(=O)NC(=S)N2C(=O)c2ccc(C)cc2)cc1 | > 54
Cc1nc2ccc(NC(=O)c3cc([N+](=O)[O-])cc([N+](=O)[O-])c3Cl)cc2s1 | 1.3
CCCCn1c(NCc2ccc(N(C)C)cc2)nc2ccccc21 | 1.14
COc1ccccc1NC(=O)c1cc2cc(Br)ccc2cc1O | 2.11
O=C(NCc1ccccc1)c1ccc2nc(-c3ccco3)c(-c3ccco3)nc2c1 | 2.3
O=C(Nc1cccc(Cl)c1)c1cc(N=Nc2ccc([N+](=O)[O-])cc2Cl)ccc1O | 1.56

Structure (SMILES) | IC50 [µM]
Nc1ccc(N)c(C(=O)O)c1 | 1.31
COc1ccc(OC)c(/C=N/c2oc(-c3ccco3)c(-c3ccco3)c2C#N)c1 | 9.72
O=C(O)c1ccc(NC2=C/C(=N/S(=O)(=O)c3ccccc3)c3ccccc3C2=O)cc1 | < 0.4
Cc1nc(N)sc1-c1csc(Nc2ncccn2)n1 | 3.98
NC(=S)n1[nH]c(-c2ccc([N+](=O)[O-])cc2)c(N=Nc2cccc(Cl)c2)c1=O | 1.48
N#C/C(=C(/O)c1ccc(-c2cccc([N+](=O)[O-])c2)o1)c1nc2ccccc2s1 | 5.71
COc1ccc(N2C(=O)C3CCCN3C2=O)cc1 (stereo unspecified) | > 54
Cc1ccc(S(=O)(=O)C(CCC(=O)N2CCOCC2)S(=O)(=O)c2ccc(C)cc2)cc1 | > 54
O=c1c(-c2c(O)cc(O)c3c(=O)cc(-c4ccc(O)cc4)oc23)c(-c2ccc(O)cc2)oc2cc(O)cc(O)c12 | > 54
Cc1nn(Cc2ccc(F)cc2)c2sc(C(=O)Nc3ccc(N4CCOCC4)cc3N3CCOCC3)cc12 | > 54
O=C(OCC1O[C@@H](OC(=O)c2cc(O)c(O)c(O)c2)[C@@H](OC(=O)c2cc(O)c(O)c(O)c2)[C@@H](OC(=O)c2cc(O)c(O)c(O)c2)[C@@H]1OC(=O)c1cc(O)c(O)c(O)c1)c1cc(O)c(O)c(O)c1 (stereo partly specified) | < 0.4
O=C(O)COc1ccc(/C=N/NC(=O)c2ccc(-c3csc(Nc4ccc(Cl)cc4)n3)cc2)cc1 | 0.784
O=C1Oc2ccccc2C(=O)/C1=C/c1ccccc1O | 3.62
COc1cc(O)c(C(=O)O)c(-c2cc(O)c(O)cc2C)c1 | < 0.4
O=C1OCC2OC(O)C(O)C(O)C2OC(=O)c2cc(O)c(O)c(O)c2-c2c(O)c(O)c3oc(=O)c4c(c(O)c(O)c5oc(=O)c2c3c54)-c2c1cc(O)c(O)c2O (stereo unspecified) | < 0.4
CN(C)c1ccc(NC(=O)CN2C(=O)CN=C(c3ccccc3)c3cc(Cl)ccc32)cc1 | > 54
Cc1ccc(NC(=S)NNc2ccc([N+](=O)[O-])cc2S(=O)(=O)Nc2ccccc2C(=O)O)cc1C | 1.27
Nc1cccc(C2=Nc3cccc4cccc(c34)N2)c1 | < 0.4
COc1ccc2[nH]c3c(=O)n(Cc4ccc(C(=O)N5CCCC5)cc4)c(=S)[nH]c3c2c1 | > 54
CN(C)c1ccc(NC(=O)/C=C/c2c(Cl)cccc2Cl)cc1 | > 54
Cc1[nH]c2ccccc2c1/C=N/Nc1ccc([N+](=O)[O-])cc1 | 0.76
O=C1/C(=C\c2ccc(O)cc2)SC(=S)N1/N=C/c1ccc(O)cc1 | 2.99
Cc1ccc(N2C(=O)NC(=O)/C(=C/c3cnc(-c4ccccc4)nc3)C2=O)cc1C | 16.3
CCn1cc(C(=O)NCc2ccc3c(c2)OCO3)c2cc(OC)c(OC)cc2c1=O | > 54
COCCN=c1scc(-c2ccco2)n1/N=C/c1ccc(O)c(O)c1O | < 0.4
